PubChem BioAssay AID2658 (Sanford-Burnham Center for Chemical Genomics, 2010)
pIC50: −log10 of the molar value. Several values for one entry are separate records, joined by “and”; a condition that tells them apart may be missing. Identical values can stand only once. Activity calls are given as the source filed them. No rule for the calls is given here.

Molecular target: Ubiquitin-conjugating enzyme E2 N (Homo sapiens) (UniProt P61088)
Assay: inhibition of Ubc13-driven ubiquitin chain assembly – biochemical, TR-FRET, Uev1a, selectivity assay, SAR follow-up (AID 2658)
Settings: Ubc13/Uev1a polyubiquitination, in vitro

Sequence of Ubiquitin-conjugating enzyme E2 N (Homo sapiens) (P61088 whole entry, looked up): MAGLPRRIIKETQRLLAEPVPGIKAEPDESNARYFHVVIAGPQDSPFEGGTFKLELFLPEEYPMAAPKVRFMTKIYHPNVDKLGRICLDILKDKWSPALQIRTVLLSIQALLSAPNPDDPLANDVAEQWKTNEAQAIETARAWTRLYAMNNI

Row | Structure (SMILES) | IC50 | pIC50
1 | COC(=O)c1ccc(CNC(=O)COC(=O)c2cc(-c3ccco3)nc3ccccc23)cc1 | > 100 µM (inactive) | 
2 | COc1ccc(CCNC(=O)COC(=O)c2cc(-c3ccco3)nc3ccccc23)cc1OC |  | 4.03
3 | O=C(COC(=O)c1cc(-c2ccco2)nc2ccccc12)NC(=O)c1ccccc1 |  | 4.03
4 | COc1ccccc1COC(=O)COC(=O)c1cc(-c2ccco2)nc2ccccc12 |  | 4.17
5 | COc1ccccc1CNC(=O)COC(=O)c1cc(-c2cccs2)nc2ccccc12 |  | 4.08
6 | Cc1ccsc1C=Nc1ccccc1O | > 100 µM (inactive) | 
7 | CC(=NOCc1nc2ccccc2c(=O)n1N=Cc1cc(C)cc([N+](=O)[O-])c1O)c1ccccc1 | > 100 µM (inactive) | 
8 | O=C(N=Nc1c(O)n(Cc2ccccc2)c2ccccc12)c1cc2ccccc2cc1O | > 100 µM (inactive) | 
9 | C=CCn1c(NC(=O)c2ccccc2Cl)c(C#N)c2nc3ccccc3nc21 | > 100 µM (inactive) | 
10 | NS(=O)(=O)c1ccc2c(c1)C1C=CCC1C(c1ccc([N+](=O)[O-])cc1)N2 (stereo not given) | > 100 µM (inactive) | 
11 | COc1cc(C2c3c(oc4ccccc4c3=O)C(=O)N2c2nccs2)ccc1O (stereo not given) | > 100 µM (inactive) | 
12 | S=c1[nH]nc(-c2cc(-c3ccccc3)n[nH]2)n1N=Cc1ccccc1 | > 100 µM (inactive) | 
13 | COC(=O)c1cccc(-c2ccc(C(c3c(C)[nH][nH]c3=O)c3c(C)[nH][nH]c3=O)o2)c1 | > 100 µM (inactive) | 
14 | COc1ccc(CNC(=O)COC(=O)c2cc(-c3ccco3)nc3ccccc23)c(OC)c1 | > 100 µM (inactive) | 
15 | O=C(O)c1ccc(C2Nc3ccc(F)cc3C3C=CCC32)cc1 (stereo not given) | > 100 µM (inactive) | 
16 | O=C(OCC(=O)N1CCN(C(=O)c2ccco2)CC1)c1cc(-c2ccco2)nc2ccccc12 |  | 4.03
17 | Cc1ccc(Nc2cc3ccccc3c(=O)[nH]2)cc1 | > 100 µM (inactive) | 
18 | O=C(COC(=O)c1cc(-c2ccco2)nc2ccccc12)NCc1ccccc1 | > 100 µM (inactive) | 
19 | COc1cc(-c2n[nH]c(=S)n2/N=C/c2cccn2C)cc(OC)c1OC | > 100 µM (inactive) | 
20 | COC(=O)c1ccc2c(c1)C1C=CCC1C(c1ccc(C(=O)O)cc1)N2 (stereo not given) | > 100 µM (inactive) | 
21 | O=C(COC(=O)c1cc(-c2ccco2)nc2ccccc12)NCc1ccc(Cl)cc1 |  | 4.13
22 | Cc1ccc(CNC(=O)COC(=O)c2cc(-c3ccco3)nc3ccccc23)cc1 |  | 4.23
23 | Cc1[nH][nH]c(=O)c1C(c1ccc(-c2cccc(C(=O)O)c2)o1)c1c(C)[nH][nH]c1=O | > 100 µM (inactive) | 
24 | N=C(N)c1ccc2cc(OC(=O)c3ccc(N=C(N)N)cc3)ccc2c1 |  | 4.85

Row | Structure (SMILES) | IC50 | pIC50
25 | CN(Cc1ccc(F)cc1)C(=O)COC(=O)c1cc(-c2ccco2)nc2ccccc12 | > 100 µM (inactive) | 
26 | C=CCn1c(NS(=O)(=O)c2ccccc2)c(S(=O)(=O)c2ccc(C)cc2)c2nc3ccccc3nc21 | > 100 µM (inactive) | 
27 | CCN(CC)C(=O)COC(=O)c1cc(-c2ccco2)nc2ccccc12 | > 100 µM (inactive) | 
28 | COc1ccc(-n2c(NC(=O)c3ccc(Br)o3)c(C#N)c3nc4ccccc4nc32)cc1 | > 100 µM (inactive) | 
29 | CCCCn1c(NS(=O)(=O)c2ccccc2)c(S(=O)(=O)c2ccc(C)cc2)c2nc3ccccc3nc21 | > 100 µM (inactive) | 
30 | Cc1ccsc1C=Nc1ccc(O)cc1 | > 100 µM (inactive) | 
31 | S=c1[nH]nc(-c2cc(-c3ccccc3)n[nH]2)n1N=Cc1ccc(Br)s1 | > 100 µM (inactive) | 
32 | Cc1cccc(Nc2cc3ccccc3c(=O)[nH]2)c1 | > 100 µM (inactive) | 
33 | CCNC(=O)COC(=O)c1cc(-c2ccco2)nc2ccccc12 | > 100 µM (inactive) | 
34 | S=c1[nH]nc(-c2cc(-c3ccccc3)n[nH]2)n1N=Cc1c(Cl)cccc1Cl | > 100 µM (inactive) | 
35 | COc1ccccc1CNC(=O)CNC(=O)c1cc(-c2ccco2)nc2ccccc12 | > 100 µM (inactive) | 
36 | Cc1ccc(C=Nc2ccccc2C(N)=O)s1 | > 100 µM (inactive) | 
37 | C/C(=N\OCc1nc2ccccc2c(=O)n1/N=C/c1cc(Br)ccc1O)c1ccccc1 | > 100 µM (inactive) | 
38 | Fc1ccc(C2Nc3ccccc3C3C=CCC32)cc1 (stereo not given) | > 100 µM (inactive) | 
39 | COc1ccccc1C(=O)NC(=O)COC(=O)c1cc(-c2ccco2)nc2ccccc12 | > 100 µM (inactive) | 
40 | Cc1[nH][nH]c(=O)c1C(c1ccc(-c2ccc(F)cc2)o1)c1c(C)[nH][nH]c1=O | > 100 µM (inactive) | 
41 | CN(C(=O)COC(=O)c1cc(-c2ccco2)nc2ccccc12)C1CCS(=O)(=O)C1 (stereo not given) |  | 4.33
42 | O=C(OCC(=O)N1CCc2ccccc2C1)c1cc(-c2ccco2)nc2ccccc12 | > 100 µM (inactive) | 
43 | O=C(/C=C/c1cccs1)Nc1scc(-c2ccccc2)c1C(=O)O |  | 4.11
44 | O=C(COC(=O)c1cc(-c2ccco2)nc2ccccc12)NCc1cccc(Cl)c1 | > 100 µM (inactive) | 
45 | COc1ccc(CNC(=O)C(C)OC(=O)c2cc(-c3ccco3)nc3ccccc23)cc1 (stereo not given) |  | 4.08
46 | COc1ccc(CNC(=O)c2cc(-c3ccco3)nc3ccccc23)cc1 | > 100 µM (inactive) | 
47 | O=C1c2oc3ccccc3c(=O)c2C(c2ccc(O)cc2)N1c1nccs1 (stereo not given) | > 100 µM (inactive) | 
48 | O=S(=O)(Nc1ccccc1F)c1ccc2c(c1)C1C=CCC1C(c1ccc(F)cc1)N2 (stereo not given) | > 100 µM (inactive) | 

Row | Structure (SMILES) | IC50 | pIC50
49 | COc1ccc(CNC(=O)COC(=O)c2cc(-c3ccco3)nc3ccccc23)cc1OC | > 100 µM (inactive) | 
50 | O=c1[nH]c(Nc2ccccc2)cc2ccccc12 | > 100 µM (inactive) | 
51 | COc1ccccc1CNC(=O)COC(=O)c1cc(-c2ccco2)nc2ccccc12 |  | 4.22
52 | O=C(COC(=O)c1cc(-c2ccco2)nc2ccccc12)NCc1ccccc1Cl | > 100 µM (inactive) | 
53 | O=c1c2ccccc2nc(COc2ccccc2)n1N=Cc1cc([N+](=O)[O-])ccc1O | > 100 µM (inactive) | 
54 | CC(=O)NC1C(=O)N(CCN2CCOCC2)c2ccc(F)cc21 (stereo not given) | > 100 µM (inactive) | 
55 | Nc1ccc2c(c1)C1C=CCC1C(c1ccccc1)N2 (stereo not given) | > 100 µM (inactive) | 
56 | C=CCC(Nc1ccccc1)C12C=CC(O1)C(C(=O)OC)=C2C(=O)OC (stereo not given) | > 100 µM (inactive) | 
57 | O=[N+]([O-])c1ccc2[nH]c(O)c(N=NC(=S)Nc3cccnc3)c2c1 | > 100 µM (inactive) | 
58 | O=C(O)c1ccc2c(c1)C1C=CCC1C(c1ccc(F)cc1)N2 (stereo not given) | > 100 µM (inactive) | 
59 | S=c1[nH]nc(-c2cc(-c3ccccc3)n[nH]2)n1N=Cc1cccc(Cl)c1 | > 100 µM (inactive) | 
60 | CCN(CC)S(=O)(=O)c1ccc(O)c(NC(=O)c2cc(-c3cc(OC)c(OC)c(OC)c3)nc3ccccc23)c1 | > 100 µM (inactive) | 
61 | O=C1c2oc3ccccc3c(=O)c2C(c2ccccc2)N1c1nccs1 (stereo not given) | > 100 µM (inactive) | 
62 | O=C(N/N=C/c1cccc(F)c1)c1cc(-c2ccco2)nc2ccccc12 |  | 4.59 and 4.63
63 | CC(NC(=O)COC(=O)c1cc(-c2ccco2)nc2ccccc12)c1ccc(F)cc1 (stereo not given) |  | 4.14
64 | Cc1c(Cl)cccc1NS(=O)(=O)c1ccc2c(c1)C1C=CCC1C(c1ccc(C(=O)O)cc1)N2 (stereo not given) | > 100 µM (inactive) | 
65 | COc1ccc(CNC(=O)COC(=O)c2cc(-c3ccc(C)o3)nc3ccccc23)cc1 |  | 4.06
66 | O=C(O)c1ccc(NS(=O)(=O)c2ccc3c(c2)C2C=CCC2C(c2ccccc2F)N3)cc1 (stereo not given) | > 100 µM (inactive) | 
67 | Clc1ccc2c(c1)C1C=CCC1C(c1ccccc1)N2 (stereo not given) | > 100 µM (inactive) | 
68 | Cc1ccsc1C=Nc1ccc(C(N)=O)cc1 | > 100 µM (inactive) | 
69 | COc1ccc(C=NNc2cc(N3CCCC3)nc(N3CCCC3)n2)cc1 |  | 4.27
70 | Cc1ccccc1CNC(=O)COC(=O)c1cc(-c2ccco2)nc2ccccc12 |  | 4.09
